According to US12209087B2, “AKT1 modulators” (Alterome Therapeutics, Inc., priority 2022, dated 2025):

Molecular target: T1, full length AKT E17K (Homo sapiens, UniProt P31749, E17K)
T1 construct: host or cells: HEK-293 (ATCC CRL-1573)
Test: NanoBRET Target Engagement (TE) Assay
Assay type: cell-based
Conditions: competitive displacement of tracer in cells, read-out: AKT1 E17K IC50
Procedure, shortened: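 Compound and tracer incubated 2 h before luminescence at donor 450 nm and acceptor 600 nm, with extracellular signal inhibited. EC50 by sigmoidal variable-slope regression.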

T1 sequence (P31749 whole entry E17K): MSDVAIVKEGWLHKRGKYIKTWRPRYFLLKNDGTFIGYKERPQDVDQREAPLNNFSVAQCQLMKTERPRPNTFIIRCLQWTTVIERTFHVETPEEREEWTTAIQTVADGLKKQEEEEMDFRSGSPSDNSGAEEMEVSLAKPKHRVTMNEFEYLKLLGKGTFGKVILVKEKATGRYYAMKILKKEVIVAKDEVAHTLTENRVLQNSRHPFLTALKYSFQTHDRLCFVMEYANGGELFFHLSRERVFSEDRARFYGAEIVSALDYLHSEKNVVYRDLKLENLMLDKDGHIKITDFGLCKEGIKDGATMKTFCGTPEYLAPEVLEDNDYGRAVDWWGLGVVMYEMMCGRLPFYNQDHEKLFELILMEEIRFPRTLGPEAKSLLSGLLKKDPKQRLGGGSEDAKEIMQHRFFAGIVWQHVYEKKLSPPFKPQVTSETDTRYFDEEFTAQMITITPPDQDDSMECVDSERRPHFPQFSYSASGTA

IC50	SMILES
60 to 600 nM	N#Cc1nccc(NC2CCN(Cc3ccc(-n4c(-c5cccnc5N)nc5ccccc54)cc3)CC2)n1 [Example 532, 4-((1-(4-(2-(2-Aminopyridin-3-yl)-1H-benzo[d]imidazol-1-yl)benzyl)piperidin-4-yl)amino)pyrimidine-2-carbonitrile]
60 to 600 nM	N#Cc1nccc(NC2CCN(Cc3ccc(-n4c(-c5cccnc5N)nc5ncccc54)cc3)CC2)n1 [Example 533, 4-((1-(4-(2-(2-Aminopyridin-3-yl)-1H-imidazo[4,5-b]pyridin-1-yl)benzyl)piperidin-4-yl)amino)pyrimidine-2-carbonitrile]
< 15 nM	Cc1ccc(-c2ccc3nc(-c4cccnc4N)n(-c4ccc(CN5CCC(Nc6ccnc(C#N)n6)CC5)cc4)c3n2)cn1 [Example 534, 4-((1-(4-(2-(2-Aminopyridin-3-yl)-5-(6-methylpyridin-3-yl)-3H-imidazo[4,5-b]pyridin-3-yl)benzyl)piperidin-4-yl)amino)pyrimidine-2-carbonitrile]
< 15 nM	N#Cc1nccc(NC2CCN(Cc3ccc(-n4c(-c5cccnc5N)nc5ccc(OC(F)F)nc54)cc3)CC2)n1 [Example 535, 4-((1-(4-(2-(2-Aminopyridin-3-yl)-5-(difluoromethoxy)-3H-imidazo[4,5-b]pyridin-3-yl)benzyl)piperidin-4-yl)amino)pyrimidine-2-carbonitrile]
< 15 nM	COc1ccncc1-c1ccc2nc(-c3cccnc3N)n(-c3ccc(CN4CCC(Nc5ccnc(C#N)n5)CC4)cc3)c2n1 [Example 536, 4-((1-(4-(2-(2-Aminopyridin-3-yl)-5-(4-methoxypyridin-3-yl)-3H-imidazo[4,5-b]pyridin-3-yl)benzyl)piperidin-4-yl)amino)pyrimidine-2-carbonitrile]
< 15 nM	COc1ncccc1-c1ccc2nc(-c3cccnc3N)n(-c3ccc(CN4CCC(Nc5ccnc(C#N)n5)CC4)cc3)c2n1 [Example 537, 4-((1-(4-(2-(2-Aminopyridin-3-yl)-5-(2-methoxypyridin-3-yl)-3H-imidazo[4,5-b]pyridin-3-yl)benzyl)piperidin-4-yl)amino)pyrimidine-2-carbonitrile]
15 to 60 nM	N#Cc1nccc(NC2CCN(Cc3ccc(-n4c(-c5cccnc5N)nc5ccc(-c6ccc[nH]c6=O)nc54)cc3)CC2)n1 [Example 538, 4-((1-(4-(2-(2-Aminopyridin-3-yl)-5-(2-hydroxypyridin-3-yl)-3H-imidazo[4,5-b]pyridin-3-yl)benzyl)piperidin-4-yl)amino)pyrimidine-2-carbonitrile]
< 15 nM	Cc1nn(C)cc1-c1ccc2nc(-c3cccnc3N)n(-c3ccc(CN4CCC(Nc5ccnc(C#N)n5)CC4)cc3)c2n1 [Example 539, 4-((1-(4-(2-(2-Aminopyridin-3-yl)-5-(1,3-dimethyl-1H-pyrazol-4-yl)-3H-imidazo[4,5-b]pyridin-3-yl)benzyl)piperidin-4-yl)amino)pyrimidine-2-carbonitrile]
60 to 600 nM	N#Cc1nccc(NC2CCN(Cc3ccc(-n4c(-c5cccnc5N)nc5cnccc54)cc3)CC2)n1 [Example 540, 4-((1-(4-(2-(2-Aminopyridin-3-yl)-1H-imidazo[4,5-c]pyridin-1-yl)benzyl)piperidin-4-yl)amino)pyrimidine-2-carbonitrile]
< 15 nM	CN(c1ccnc(C#N)n1)C1CCN(Cc2ccc(-n3c(-c4cccnc4N)nc4ccc(-c5ccc(F)cc5)nc43)cc2)CC1 [Example 541, 4-((1-(4-(2-(2-aminopyridin-3-yl)-5-(4-fluorophenyl)-3H-imidazo[4,5-b]pyridin-3-yl)benzyl)piperidin-4-yl)(methyl)amino)pyrimidine-2-carbonitrile]
< 15 nM	N#Cc1nccc(NC2CCN(Cc3ccc(-n4c(-c5cccnc5N)nc5ccc(-c6ccc(OC(F)F)nc6)nc54)cc3)CC2)n1 [Example 542, 4-((1-(4-(2-(2-Aminopyridin-3-yl)-5-(6-(difluoromethoxy)pyridin-3-yl)-3H-imidazo[4,5-b]pyridin-3-yl)benzyl)piperidin-4-yl)amino)pyrimidine-2-carbonitrile]
15 to 60 nM	N#Cc1nccc(NC2CCN(Cc3ccc(-n4c(-c5cccnc5N)nc5ccc(-c6ccnc(OC(F)F)c6)nc54)cc3)CC2)n1 [Example 543, 4-((1-(4-(2-(2-aminopyridin-3-yl)-5-(2-(difluoromethoxy)pyridin-4-yl)-3H-imidazo[4,5-b]pyridin-3-yl)benzyl)piperidin-4-yl)amino)pyrimidine-2-carbonitrile]
< 15 nM	N#Cc1nccc(NC2CCN(Cc3ccc(-n4c(-c5cccnc5N)nc5ccc(-c6ccc(F)cc6O)nc54)cc3)CC2)n1 [Example 544, 4-((1-(4-(2-(2-Aminopyridin-3-yl)-5-(4-fluoro-2-hydroxyphenyl)-3H-imidazo[4,5-b]pyridin-3-yl)benzyl)piperidin-4-yl)amino)pyrimidine-2-carbonitrile]
< 15 nM	N#Cc1nccc(NC2CCN(Cc3ccc(-n4c(-c5cccnc5N)nc5ccc(-c6ccc(F)c(O)c6)nc54)cc3)CC2)n1 [Example 545, 4-((1-(4-(2-(2-Aminopyridin-3-yl)-5-(4-fluoro-3-hydroxyphenyl)-3H-imidazo[4,5-b]pyridin-3-yl)benzyl)piperidin-4-yl)amino)pyrimidine-2-carbonitrile]
< 15 nM	Cn1cncc1-c1ccc2nc(-c3cccnc3N)n(-c3ccc(CN4CCC(Nc5ccnc(C#N)n5)CC4)cc3)c2n1 [Example 546, 4-((1-(4-(2-(2-Aminopyridin-3-yl)-5-(1-methyl-1H-imidazol-5-yl)-3H-imidazo[4,5-b]pyridin-3-yl)benzyl)piperidin-4-yl)amino)pyrimidine-2-carbonitrile]
< 15 nM	Cc1ccc(-c2ccc3nc(-c4cccnc4N)n(-c4ccc(CN5CCC(Nc6ccnc(C#N)n6)CC5)cc4)c3n2)nc1 [Example 547, 4-((1-(4-(2-(2-Aminopyridin-3-yl)-5-(5-methylpyridin-2-yl)-3H-imidazo[4,5-b]pyridin-3-yl)benzyl)piperidin-4-yl)amino)pyrimidine-2-carbonitrile]
< 15 nM	N#Cc1ccnc(-c2ccc3nc(-c4cccnc4N)n(-c4ccc(CN5CCC(Nc6ccnc(C#N)n6)CC5)cc4)c3n2)c1 [Example 548, 4-((1-(4-(2-(2-Aminopyridin-3-yl)-5-(4-cyanopyridin-2-yl)-3H-imidazo[4,5-b]pyridin-3-yl)benzyl)piperidin-4-yl)amino)pyrimidine-2-carbonitrile]
< 15 nM	N#Cc1nccc(NC2CCN(Cc3ccc(-n4c(-c5cccnc5N)nc5cc(Br)c(-c6ccc(F)cc6)nc54)cc3)CC2)n1 [Example 549, 4-((1-(4-(2-(2-Aminopyridin-3-yl)-6-bromo-5-(4-fluorophenyl)-3H-imidazo[4,5-b]pyridin-3-yl)benzyl)piperidin-4-yl)amino)pyrimidine-2-carbonitrile]
< 15 nM	Cc1nc2c(cc1C#N)nc(-c1cccnc1N)n2-c1ccc(CN2CCC(Nc3ccnc(C#N)n3)CC2)cc1 [Example 550, 2-(2-Aminopyridin-3-yl)-3-(4-((4-((2-cyanopyrimidin-4-yl)amino)piperidin-1-yl)methyl)phenyl)-5-methyl-3H-imidazo[4,5-b]pyridine-6-carbonitrile]
< 15 nM	N#Cc1nccc(NC2CCN(Cc3ccc(-n4c(-c5cccnc5N)nc5ccc(-c6ccncc6F)nc54)cc3)CC2)n1 [Example 551, 4-((1-(4-(2-(2-aminopyridin-3-yl)-5-(3-fluoropyridin-4-yl)-3H-imidazo[4,5-b]pyridin-3-yl)benzyl)piperidin-4-yl)amino)pyrimidine-2-carbonitrile]
< 15 nM	COc1ccc(-c2ccc3nc(-c4cccnc4N)n(-c4ccc(CN5CCC(Nc6ccnc(C#N)n6)CC5)cc4)c3n2)nc1 [Example 552, 4-((1-(4-(2-(2-Aminopyridin-3-yl)-5-(5-methoxypyridin-2-yl)-3H-imidazo[4,5-b]pyridin-3-yl)benzyl)piperidin-4-yl)amino)pyrimidine-2-carbonitrile]
15 to 60 nM	N#Cc1cc2c(cn1)nc(-c1cccnc1N)n2-c1ccc(CN2CCC(Nc3ccnc(C#N)n3)CC2)cc1 [Example 553, 2-(2-Aminopyridin-3-yl)-1-(4-((4-((2-cyanopyrimidin-4-yl)amino)piperidin-1-yl)methyl)phenyl)-1H-imidazo[4,5-c]pyridine-6-carbonitrile]
< 15 nM	Cc1ncoc1-c1ccc2nc(-c3cccnc3N)n(-c3ccc(CN4CCC(Nc5ccnc(C#N)n5)CC4)cc3)c2n1 [Example 554, 4-((1-(4-(2-(2-Aminopyridin-3-yl)-5-(4-methyloxazol-5-yl)-3H-imidazo[4,5-b]pyridin-3-yl)benzyl)piperidin-4-yl)amino)pyrimidine-2-carbonitrile]
< 15 nM	N#Cc1nccc(NC2CCN(Cc3ccc(-n4c(-c5cccnc5N)nc5ccc(-c6cnn(C7CC7)c6)nc54)cc3)CC2)n1 [Example 555, 4-((1-(4-(2-(2-Aminopyridin-3-yl)-5-(1-cyclopropyl-1H-pyrazol-4-yl)-3H-imidazo[4,5-b]pyridin-3-yl)benzyl)piperidin-4-yl)amino)pyrimidine-2-carbonitrile]
600 to 10000 nM	N#Cc1nccc(NC2CCN(Cc3ccc(-n4c(-c5cccnc5N)nc5nc(C#N)c(C#N)nc54)cc3)CC2)n1 [Example 556, 2-(2-Aminopyridin-3-yl)-1-(4-((4-((2-cyanopyrimidin-4-yl)amino)piperidin-1-yl)methyl)phenyl)-1H-imidazo[4,5-b]pyrazine-5,6-dicarbonitrile]
< 15 nM	N#Cc1nccc(NC2CCN(Cc3ccc(-n4c(-c5cccnc5N)nc5cc(C#N)c(-c6ccc(F)cc6)nc54)cc3)CC2)n1 [Example 557, 2-(2-Aminopyridin-3-yl)-3-(4-((4-((2-cyanopyrimidin-4-yl)amino)piperidin-1-yl)methyl)phenyl)-5-(4-fluorophenyl)-3H-imidazo[4,5-b]pyridine-6-carbonitrile]
< 15 nM	N#Cc1nccc(NC2CCN(Cc3ccc(-n4c(-c5cccnc5N)nc5ccc(-c6cccnc6F)nc54)cc3)CC2)n1 [Example 558, 4-((1-(4-(2-(2-Aminopyridin-3-yl)-5-(2-fluoropyridin-3-yl)-3H-imidazo[4,5-b]pyridin-3-yl)benzyl)piperidin-4-yl)amino)pyrimidine-2-carbonitrile]
